Results as given in patent publication US8940736B2, “Imidazotriazinecarbonitriles useful as kinase inhibitors” (Bristol-Myers Squibb Company, priority 2012, dated 2015).

Columns and labels:
[1] = target: recombinant CK2A1 (Homo sapiens (Human), UniProt P68400); assay: CK2 kinase assay (CK2A1); assay type: biochemical; settings: Table B, comparison compound of WO 2007/038314 / US 2008/0045536
Experimental: (§1) For example, in vitro protein kinase assays may be conducted with a relevant purified protein kinase and an appropriate synthetic substrate to determine the inhibitory activity of the compounds. […] Reaction mixtures were incubated at 30° C. for 1 hour, and reaction products were captured by binding to phosphocellulose (P81) filter plates. Incorporation of radioactive phosphate into the peptide substrate was determined by liquid scintillation counting.
(§2) The inhibitory activity of the instant compounds may also be measured by recombinant CK2 holoenzyme kinase assays. The assays were performed in U-bottom 384-well plates. […] The reaction was initiated by the combination of bacterially expressed, CK2α/β or CK2α′/β holoenzyme with substrates and test compounds. […] Compounds were dissolved at 10 mM in dimethylsulfoxide (DMSO) and evaluated at eleven concentrations. IC50 values were derived by non-linear regression analysis.

[2] = target: recombinant CK2A2 (Homo sapiens (Human), UniProt P19784); assay: CK2 kinase assay (CK2A2); assay type: biochemical; settings: Table B, comparison compound of WO 2007/038314 / US 2008/0045536
recombinant CK2A2, sequence (P19784 whole entry): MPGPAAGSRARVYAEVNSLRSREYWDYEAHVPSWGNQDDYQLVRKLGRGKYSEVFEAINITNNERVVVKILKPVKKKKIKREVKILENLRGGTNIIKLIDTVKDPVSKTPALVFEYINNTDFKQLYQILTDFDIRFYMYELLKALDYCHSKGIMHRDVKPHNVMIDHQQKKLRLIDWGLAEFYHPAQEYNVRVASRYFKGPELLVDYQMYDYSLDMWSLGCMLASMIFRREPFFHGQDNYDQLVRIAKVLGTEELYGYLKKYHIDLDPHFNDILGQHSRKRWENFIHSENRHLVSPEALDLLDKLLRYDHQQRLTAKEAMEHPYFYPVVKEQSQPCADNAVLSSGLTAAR
Experimental: as §1, §2

recombinant CK2A1, sequence (P68400 whole entry): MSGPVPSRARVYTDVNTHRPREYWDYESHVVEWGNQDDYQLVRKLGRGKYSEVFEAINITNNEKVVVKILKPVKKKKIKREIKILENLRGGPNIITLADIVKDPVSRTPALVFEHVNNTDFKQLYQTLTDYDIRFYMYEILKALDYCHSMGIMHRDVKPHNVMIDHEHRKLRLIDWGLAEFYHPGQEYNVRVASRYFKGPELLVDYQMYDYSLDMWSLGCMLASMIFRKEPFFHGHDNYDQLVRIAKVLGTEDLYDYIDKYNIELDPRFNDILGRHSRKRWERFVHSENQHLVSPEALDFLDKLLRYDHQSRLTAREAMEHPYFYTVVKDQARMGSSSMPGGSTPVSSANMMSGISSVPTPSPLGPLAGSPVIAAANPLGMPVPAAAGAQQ

## CCOc1ccc(Nc2nc(N[C@H]3CC[C@@H](N)CC3)nn3ccnc23)cc1 [XIII]
[1]
  IC50: 1800 nM
[2]
  IC50: 331 nM
